Columns and labels:
[1] = molecular target: human activated kallikrein enzyme (Homo sapiens, UniProt P03952); experiment: Inhibition of activated plasma kallikrein, fluorogenic peptide substrate (PFR-AMC) assay, 500 pM enzyme format; format: biochemical; details: 500 pM activated kallikrein, 300 uM PFR-AMC, 30 min preincubation, 10 min reaction, room temperature; read-out: Primary Dose Response Assay: Average EC50
Experimental: Compounds were evaluated for inhibition of the human activated kallikrein enzyme in two formats of an assay employing a fluorogenic peptide substrate. In one assay format, the concentrations of reagents were as follows: 20 mM Tris pH 7.5, 1 mM EDTA, 150 mM sodium chloride, 0.1% PEG-400, 0.1% Triton X-100, 500 pM activated kallikrein enzyme, 300 uM Pro-Phe-Arg-7-amido-4-methylcoumarin (PFR-AMC) substrate. Prior to reaction initiation with substrate, enzyme and inhibitors were preincubated for 30 min at room temperature. After initiation with substrate, reactions were incubated for 10 min at room temperature and fluorescence emission at 460 nm from 380 nm excitation measured with a microplate reader. In another assay format, the concentrations of reagents were as follows: 20 mM Tris pH 7.5, 1 mM EDTA, 150 mM sodium chloride, 0.1% PEG-400, 0.1% Triton X-100, 5 pM activated kallikrein enzyme, 300 uM PFR-AMC substrate. Prior to reaction initiation with substrate, enzyme and inhibitors were preincubated for 30 min at room temperature. After initiation with substrate, reactions were incubated for 18 hr at room temperature and fluorescence emission at 460 nm from 380 nm excitation measured with a microplate reader.
Table 6 provides the results of the assay in the format with 500 pM activated kallikrein assay.

plasma kallikrein = molecular target: T1, plasma kallikrein (Homo sapiens, UniProt P03952); experiment: Neat human plasma assay: contact pathway-activated (FXIIa) plasma, PFR-AMC substrate; format: biochemical; details: citrated human plasma (78% final), 10 nM human FXIIa, 100 μM PFR-AMC, room temperature
T1 construct: from tissue; host or cells: sodium citrate collected human plasma (78% final)
T1 sequence (P03952 391-638 limits assumed): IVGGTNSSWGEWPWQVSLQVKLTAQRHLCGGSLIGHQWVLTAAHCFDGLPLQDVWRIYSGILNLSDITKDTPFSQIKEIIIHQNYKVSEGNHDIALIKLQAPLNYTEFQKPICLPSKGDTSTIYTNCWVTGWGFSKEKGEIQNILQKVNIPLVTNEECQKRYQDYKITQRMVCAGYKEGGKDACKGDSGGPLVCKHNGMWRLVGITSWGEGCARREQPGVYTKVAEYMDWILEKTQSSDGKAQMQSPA
T1 sequence (P03952 20-390 partner limits assumed): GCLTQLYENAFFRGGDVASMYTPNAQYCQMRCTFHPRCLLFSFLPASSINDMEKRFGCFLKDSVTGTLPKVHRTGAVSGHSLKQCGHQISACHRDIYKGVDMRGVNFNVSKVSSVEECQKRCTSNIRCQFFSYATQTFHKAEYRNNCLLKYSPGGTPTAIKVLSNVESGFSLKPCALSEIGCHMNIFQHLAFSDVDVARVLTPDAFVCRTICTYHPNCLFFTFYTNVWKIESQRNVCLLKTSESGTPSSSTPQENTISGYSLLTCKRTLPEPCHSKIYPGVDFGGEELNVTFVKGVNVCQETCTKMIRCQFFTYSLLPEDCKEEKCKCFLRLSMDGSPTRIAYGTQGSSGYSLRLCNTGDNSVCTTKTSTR
Experimental: To analyze inhibition of plasma kallikrein in an ex vivo setting, the potency of compounds was measure in contact pathway-activated plasma assays. In a fluorogenic peptide substrate assay, test compounds dissolved in DMSO were added to sodium citrate collected human or rat plasma in a 96-well microplate. Alternatively, citrated plasma was collected from rats administered the compounds orally or by IV. 10 nM of human FXIIa (Enzyme Research Laboratories) diluted in pKal buffer (20 mM Tris-HCl, pH 7.5, 150 mM NaCl, 1 mM EDTA, 0.1% PEG-8000, and 0.1% Triton X-100) was added to the plasma, followed by the 100 μM of the profluorescent, synthetic plasma kallikrein substrate PFR-AMC (also diluted in pKal buffer). Final plasma concentration in the reaction was 78%. Fluorescence was immediately monitored by excitation/emission wavelengths of 360 nm/480 nm respectively over a period of 5 minutes in a microplate reader. The resulting linear increase in fluorescence emission (reflecting pKal proteolysis of PFR-AMC substrate) was fit to extract a proteolytic rate (fluorescent units over time), and this rate was subsequently plotted against compound inhibitor concentration. Resulting plots were fit to a standard 4-parameter IC50/IC90 equation to determine min/max values, IC50/90, and slope. All experimental steps were performed at room temperature.

Chain of human activated kallikrein enzyme (P03952 391-638 limits assumed): as the sequence (P03952 391-638 limits assumed) above
Chain of human activated kallikrein enzyme (P03952 20-390 partner limits assumed): as the sequence (P03952 20-390 partner limits assumed) above

| EC50 [1] [nM] | IC90 (plasma kallikrein) [nM] | Structure (SMILES) |
| --- | --- | --- |
| ≤ 1 | 1500 to 10000 | Cc1ccnc([C@H]2C[C@@H]2C2=NS(=O)(=O)c3cc(Cl)c(NCc4cn5cc(C6CC6)ccc5n4)cc3N2)n1 (racemic) [Example 89, rac-7-chloro-6-(((6-cyclopropylimidazo[1,2-a]pyridin-2-yl)methyl)amino)-3-((1S*,2S*)-2-(4-methylpyrimidin-2-yl)cyclopropyl)-4H-benzo[e][1,2,4]thiadiazine 1,1-dioxide] |
| 1 to 10 | 1500 to 10000 | Cc1ccnc([C@H]2C[C@@H]2c2cc(-n3cncn3)c3ccc(NCc4cn5cc(C6CC6)cc(N6CC(=O)N(C)C6=O)c5n4)cc3n2)n1 (racemic) [Example 26, rac-1-(6-cyclopropyl-2-(((2-((1S*,2S*)-2-(4-methylpyrimidin-2-yl)cyclopropyl)-4-(1H-1,2,4-triazol-1-yl)quinolin-7-yl)amino)methyl)imidazo[1,2-a]pyridin-8-yl)-3-methylimidazolidine-2,4-dione] |
| ≤ 1 | 400 to 1500 | Cc1ccnc([C@H]2C[C@@H]2c2cc(-c3cnn(C)c3)c3ccc(NCc4cn5cc(C6CC6)cc(N6CC(=O)N(C)C6=O)c5n4)cc3n2)n1 [Example 27, 1-(6-cyclopropyl-2-(((4-(1-methyl-1H-pyrazol-4-yl)-2-((1S,2S)-2-(4-methylpyrimidin-2-yl)cyclopropyl)quinolin-7-yl)amino)methyl)imidazo[1,2-a]pyridin-8-yl)-3-methylimidazolidine-2,4-dione] |
| ≤ 1 | ≤ 400 | Cc1ccnc([C@H]2C[C@@H]2c2cc(N3CC4(COC4)C3)c3ccc(NCc4cn5cc(C6CC6)cc(N6CC(=O)N(C)C6=O)c5n4)cc3n2)n1 [Example 36, 1-(6-cyclopropyl-2-(((2-((1S,2S)-2-(4-methylpyrimidin-2-yl)cyclopropyl)-4-(2-oxa-6-azaspiro[3.3]heptan-6-yl)quinolin-7-yl)amino)methyl)imidazo[1,2-a]pyridin-8-yl)-3-methylimidazolidine-2,4-dione] |
| ≤ 1 | 400 to 1500 | Cc1ccnc([C@H]2C[C@@H]2c2nc3cc(NCc4cn5cc(C6CC6)cc(N6CC(=O)N(C)C6=O)c5n4)ncc3c(=O)[nH]2)n1 (racemic) [Example 7, rac-1-(6-cyclopropyl-2-(((2-((1S*,2S*)-2-(4-methylpyrimidin-2-yl)cyclopropyl)-4-oxo-3,4-dihydropyrido[4,3-d]pyrimidin-7-yl)amino)methyl)imidazo[1,2-a]pyridin-8-yl)-3-methylimidazolidine-2,4-dione] |
| ≤ 1 | ≤ 400 | Cc1ccnc([C@H]2C[C@@H]2c2cc(N3CC4(COC4)C3)c3ccc(N(C)Cc4cn5cc(C6CC6)cc(N6CC(=O)N(C)C6=O)c5n4)cc3n2)n1 [Example 98, 1-(6-cyclopropyl-2-((methyl(2-((1S,2S)-2-(4-methylpyrimidin-2-yl)cyclopropyl)-4-(2-oxa-6-azaspiro[3.3]heptan-6-yl)quinolin-7-yl)amino)methyl)imidazo[1,2-a]pyridin-8-yl)-3-methylimidazolidine-2,4-dione] |
| ≤ 1 | 1500 to 10000 | Cc1ccnc([C@H]2C[C@@H]2C2=NS(=O)(=O)c3ccc(OCc4cn5cc(C6CC6)ccc5n4)cc3N2)n1 [Example 91, 6-((6-cyclopropylimidazo[1,2-a]pyridin-2-yl)methoxy)-3-((1S,2S)-2-(4-methylpyrimidin-2-yl)cyclopropyl)-4H-benzo[e][1,2,4]thiadiazine 1,1-dioxide] |
| 1 to 10 | 1500 to 10000 | Cc1ccnc([C@H]2C[C@@H]2c2cc(O)c3ccc(N4C[C@@H](O)C[C@@H]4c4cn5cc(C6CC6)ccc5n4)cc3n2)n1 (relative stereo) [Example 54, rac-7-((2R,4S)-2-(6-cyclopropylimidazo[1,2-a]pyridin-2-yl)-4-hydroxypyrrolidin-1-yl)-2-((1S*,2S*)-2-(4-methylpyrimidin-2-yl)cyclopropyl)quinolin-4-ol] |
| 1 to 10 | 1500 to 10000 | Cc1ccnc([C@H]2C[C@@H]2c2ccc3ncc(NCc4cn5cc(C6CC6)cc(N6CC(=O)N(C)C6=O)c5n4)cc3n2)n1 (racemic) [Example 14, rac-1-(6-cyclopropyl-2-(((6-((1S*,2S*)-2-(4-methylpyrimidin-2-yl)cyclopropyl)-1,5-naphthyridin-3-yl)amino)methyl)imidazo[1,2-a]pyridin-8-yl)-3-methylimidazolidine-2,4-dione] |
| 1 to 10 | 1500 to 10000 | Cc1ccnc([C@H]2C[C@@H]2c2cc(N(C)S(C)(=O)=O)c3ccc(NCc4cn5cc(C6CC6)cc(N6CC(=O)N(C)C6=O)c5n4)cc3n2)n1 (racemic) [Example 34, rac-N-(7-(((6-cyclopropyl-8-(3-methyl-2,4-dioxoimidazolidin-1-yl)imidazo[1,2-a]pyridin-2-yl)methyl)amino)-2-((1S*,2S*)-2-(4-methylpyrimidin-2-yl)cyclopropyl)quinolin-4-yl)-N-methylmethanesulfonamide] |
| ≤ 1 | 400 to 1500 | COc1cc(NCc2cn3cc(C4CC4)cc(N4CC(=O)N(C)C4=O)c3n2)cc2nc([C@H]3C[C@@H]3c3nccc(C)n3)ccc12 [Example 28, 1-(6-cyclopropyl-2-(((5-methoxy-2-((1S,2S)-2-(4-methylpyrimidin-2-yl)cyclopropyl)quinolin-7-yl)amino)methyl)imidazo[1,2-a]pyridin-8-yl)-3-methylimidazolidine-2,4-dione] |
| 100 to 6500 |  | Cc1ccnc([C@H]2C[C@@H]2c2ccc3c(ncn3Cc3cn4cc(C5CC5)cc(N5CC(=O)N(C)C5=O)c4n3)n2)n1 (racemic) [Example 72, rac-1-(6-cyclopropyl-2-((5-((1S*,2S*)-2-(4-methylpyrimidin-2-yl)cyclopropyl)-1H-imidazo[4,5-b]pyridin-1-yl)methyl)imidazo[1,2-a]pyridin-8-yl)-3-methylimidazolidine-2,4-dione] |
| 100 to 6500 |  | Cc1ccnc([C@H]2C[C@@H]2c2ccc3ncc(N(C)Cc4cn5cc(C6CC6)cc(N6CC(=O)N(C)C6=O)c5n4)cc3c2)n1 (racemic) [Example 17, rac-1-(6-Cyclopropyl-2-((methyl(6-((1S*,2S*)-2-(4-methylpyrimidin-2-yl)cyclopropyl)quinolin-3-yl)amino)methyl)imidazo[1,2-a]pyridin-8-yl)-3-methylimidazolidine-2,4-dione] |
| > 6500 |  | Cc1ccnc([C@H]2C[C@@H]2c2ccc3cccc(NCc4cn5cc(C6CC6)cc(N6CC(=O)N(C)C6=O)c5n4)c3n2)n1 (racemic) [Example 70, rac-1-(6-cyclopropyl-2-(((2-((1S*,2S*)-2-(4-methylpyrimidin-2-yl)cyclopropyl)quinolin-8-yl)amino)methyl)imidazo[1,2-a]pyridin-8-yl)-3-methylimidazolidine-2,4-dione] |
| 1 to 10 |  | CN1C(=O)CN(c2cc(C3CC3)cn3cc(CNc4ccc5ccc([C@H]6C[C@@H]6c6cc(Cl)ccc6C#N)nc5c4)nc23)C1=O (racemic) [Example 83, rac-4-chloro-2-((1S*,2S*)-2-(7-(((6-cyclopropyl-8-(3-methyl-2,4-dioxoimidazolidin-1-yl)imidazo[1,2-a]pyridin-2-yl)methyl)amino)quinolin-2-yl)cyclopropyl)benzonitrile] |
| > 6500 |  | Clc1cccc([C@H]2C[C@@H]2c2nc3cccc(NCc4cn5cc(C6CC6)ccc5n4)c3[nH]2)c1 [Example 46, 2-((1S, 2S)-2-(3-chlorophenyl)cyclopropyl)-N-((6-cyclopropylimidazo[1,2-a]pyridin-2-yl)methyl)-1H-benzo[d]imidazol-7-amine] |
| 10 to 100 |  | O=c1nc([C@H]2C[C@@H]2c2cccc(Cl)c2)[nH]c2cc(NCc3cn4cc(C5CC5)ccc4n3)ccc12 [Example 50, 2-((1S,2S)-2-(3-chlorophenyl)cyclopropyl)-7-(((6-cyclopropylimidazo[1,2-a]pyridin-2-yl)methyl)amino)quinazolin-4 (1H)-one] |
| 10 to 100 |  | Cc1ccnc([C@@H]2C[C@H]2C2=NS(=O)(=O)c3ccc(NCc4cn5cc(C6CC6)ccc5n4)cc3N2)n1 (single isomer, unassigned) [Example 66] |
